US11180487B2, “Substituted cyanoindoline derivatives as NIK inhibitors” (Janssen Pharmaceutica NV, priority 2016, dated 2021)

Columns and labels:
[1] = target: recombinant human NF-kappaB-inducing kinase (NIK/MAP3K14) (Homo sapiens, UniProt Q99558); experiment: Inhibition of auto-phosphorylation of recombinant human NIK/MAP3K14 activity (AlphaScreen), Biological Assay A; assay type: biochemical; conditions: averaged values over all measurements on all batches
Method: Inhibition of Auto-Phosphorylation of Recombinant Human NF-kappaB-Inducing Kinase (NIK/MAP3K14) Activity (AlphaScreen®)
NIK/MAP3K14 auto-phosphorylation activity was measured using the AlphaScreen® (αscreen) format (Perkin Elmer). All compounds tested were dissolved in dimethyl sulfoxide (DMSO) and further dilutions were made in assay buffer. Final DMSO concentration was 1% (v/v) in assays. Assay buffer was 50 mM Tris pH 7.5 containing 1 mM EGTA (ethylene glycol tetraacetic acid), 1 mM DTT (dithiothreitol), 0.1 mM Na3VO4, 5 mM MgCl2, 0.01% Tween® 20. Assays were carried out in 384 well Alphaplates (Perkin Elmer). Incubations consisted of compound, 25 microM Adenosine-5′-triphosphate (ATP), and 0.2 nM NIK/MAP3K14. Incubations were initiated by addition of GST-tagged NIK/MAP3K14 enzyme, carried out for 1 h at 25° C. and terminated by addition of stop buffer containing anti-phospho-IKK Ser176/180 antibody. Protein A Acceptor and Glutathione-Donor beads were added before reading using an EnVision® Multilabel Plate Reader (Perkin Elmer). Signal obtained in the wells containing blank samples was subtracted from all other wells and IC50's were determined by fitting a sigmoidal curve to % inhibition of control versus Log10 compound concentration.

[2] = tested on: JJN-3 (NIK translocated) multiple myeloma cells; experiment: Antiproliferative activity on JJN-3 multiple myeloma cells (CellTiter-Glo, 96 hr), Biological Assay C; assay type: cell-based, human; conditions: Homo sapiens, JJN-3, 96 h, JJN-3 (NIK translocated) cells, averaged values, read-out: JJN-3 Proliferation inhibition (IC50 (nM))
Method: (§1) Determination of Antiproliferative Activity on JJN-3 (NIK Translocated) and KMS12-BM (NIK WT) Multiple Myeloma Cells
(§2) All compounds tested were dissolved in DMSO and further dilutions were made in culture medium. Final DMSO concentration was 0.3% (v/v) in cell proliferation assays. Viability was assessed using CellTiter-Glo cell viability assay kit (Promega). The human JJN-3 and KMS12-BM cells (DSMZ) were cultured in RPMI 1640 medium supplemented with 2 mM L-glutamine, and 10% fetal calf serum (PAA). Cells were routinely kept as suspension cells at 37° C. in a humidified 5% CO2 atmosphere. Cells were passaged at a seeding density of 0.2×10^6/ml twice a week. Cells were seeded in black tissue culture treated 96-well plates (Perkin Elmer). Densities used for plating ranged from 15000 (JJN3) to 20000 (KMS12BM) cells per well in a total volume of 135 μl medium. Drugs and/or solvents were added (15 μl) to a final volume of 150 μl. Following 96 hr of treatment, plates were removed from the incubator and allowed to equilibrate to room temperature for approx 10 min. 75 μl CellTiter-Glo reagent was added to each well that was then covered (Perkin Elmer Topseal) and shaken on plate shaker for 10 min. Luminescence was measured on a HTS Topcount (Perkin Elmer).
(§3) Within an experiment, the results for each treatment were the mean of 2 replicate wells. For initial screening purposes, compounds were tested using a 9 point dilution curve (serial 1:3 dilutions). For each experiment, controls (containing no drug) and a blank incubation (containing cells read at the time of compound addition) were run in parallel. The blank value was subtracted from all control and sample values. For each sample, the mean value for cell growth (in relative light units) was expressed as a percentage of the mean value for cell growth of the control.

[3] = tested on: KMS12-BM (NIK WT) multiple myeloma cells; experiment: Antiproliferative activity on KMS12-BM multiple myeloma cells (CellTiter-Glo, 96 hr), Biological Assay C; assay type: cell-based, human; conditions: Homo sapiens, KMS-12-BM, 96 h, averaged values, read-out: KMS-12 Proliferation inhibition (IC50 (nM))
Method: as §1, §2, §3

recombinant human NF-kappaB-inducing kinase (NIK/MAP3K14), sequence (Q99558 whole entry): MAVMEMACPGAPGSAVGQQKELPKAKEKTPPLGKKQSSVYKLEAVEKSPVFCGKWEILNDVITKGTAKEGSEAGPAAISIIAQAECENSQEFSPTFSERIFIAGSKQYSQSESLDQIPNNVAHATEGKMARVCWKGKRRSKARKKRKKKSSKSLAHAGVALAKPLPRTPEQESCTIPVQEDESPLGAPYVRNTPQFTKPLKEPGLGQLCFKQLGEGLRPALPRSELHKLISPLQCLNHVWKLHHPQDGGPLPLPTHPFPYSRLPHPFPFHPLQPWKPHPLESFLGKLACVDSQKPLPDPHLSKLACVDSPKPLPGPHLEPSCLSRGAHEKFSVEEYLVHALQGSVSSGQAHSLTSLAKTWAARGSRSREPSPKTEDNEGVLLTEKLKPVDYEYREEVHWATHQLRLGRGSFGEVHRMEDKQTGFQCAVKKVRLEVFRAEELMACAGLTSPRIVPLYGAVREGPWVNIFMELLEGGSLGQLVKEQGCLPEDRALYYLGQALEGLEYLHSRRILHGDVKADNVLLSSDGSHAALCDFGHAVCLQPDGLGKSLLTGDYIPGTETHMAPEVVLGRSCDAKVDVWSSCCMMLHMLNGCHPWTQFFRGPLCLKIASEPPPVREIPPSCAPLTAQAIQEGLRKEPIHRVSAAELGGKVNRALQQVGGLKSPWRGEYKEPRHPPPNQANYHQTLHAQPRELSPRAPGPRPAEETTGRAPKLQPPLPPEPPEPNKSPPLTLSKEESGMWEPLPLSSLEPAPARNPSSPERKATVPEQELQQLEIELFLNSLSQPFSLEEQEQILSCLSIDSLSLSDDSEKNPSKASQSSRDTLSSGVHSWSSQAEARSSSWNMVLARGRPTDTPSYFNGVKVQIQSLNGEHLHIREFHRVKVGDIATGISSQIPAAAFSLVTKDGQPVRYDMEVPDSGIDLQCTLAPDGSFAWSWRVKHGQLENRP

Compound	IC50 [1]	IC50 [2]	IC50 [3]	melting point
COc1cc(Nc2nccc(-c3cc(C#N)c4c(c3)C(C)(C)CN4)n2)c(F)c(OC)c1 [Compound 104]	12 nM	2140 nM	> 10000 nM	176 °C
CC(C)Oc1ccc(Cl)cc1Nc1nccc(-c2cc(C#N)c3c(c2)C(C)(C)CN3)n1 [Compound 102]	403 nM	3550 nM	> 10000 nM	112 °C
CC1(CO)CNc2c(C#N)cc(-c3ccnc(Nc4cc(Cl)ccc4C(F)(F)F)n3)cc21 (stereo not shown) [Compound 49]	24.6 nM	1620 nM	> 10000 nM	172 °C
CCN1CCC(c2ccc(Nc3nccc(-c4cc(C#N)c5c(c4)C(C)(CO)CN5)n3)cc2Cl)CC1 (stereo not shown) [Compound 41]	1.7 nM	13 nM	110 nM	> 260 °C
COCCCc1ccc(Cl)cc1Nc1nccc(-c2cc(C#N)c3c(c2)[C@@](C)(CO)CN3)n1 [Compound 72]	11 nM	123 nM	> 10000 nM	189 °C
COCCOc1ccc(Cl)cc1Nc1nccc(-c2cc(C#N)c3c(c2)C(C)(C)CN3)n1 [Compound 100]	91.2 nM	1410 nM	> 10000 nM	171 °C
CN(C)C(=O)Cc1ccc(Cl)cc1Nc1nccc(-c2cc(C#N)c3c(c2)C(C)(CO)CN3)n1 (stereo not shown) [Compound 54]	9.8 nM	275 nM	> 10000 nM	154 °C
Cc1c(Nc2nccc(-c3cc(C#N)c4c(c3)C(C)(CO)CN4)n2)cc(Cl)cc1C(=O)N(C)C (stereo not shown) [Compound 53]	3.6 nM	33 nM	1260 nM	245 °C
COc1ccc(C(F)(F)F)cc1Nc1nccc(-c2cc(C#N)c3c(c2)C(C)(CO)CN3)n1 (stereo not shown) [Compound 30]	51.3 nM	> 10000 nM	> 10000 nM	224 °C
Cc1ccc(Cl)cc1Nc1nccc(-c2cc(C#N)c3c(c2)C(C)(CO)CN3)n1 (stereo not shown) [Compound 27]	9.2 nM	106 nM	> 10000 nM	289 °C
CN1CCCC(Oc2ccc(Cl)cc2Nc2nccc(-c3cc(C#N)c4c(c3)C(C)(CO)CN4)n2)C1 (mixture of isomers) [Compound 39]	7.4 nM	87 nM	2340 nM	173 °C
CN1CCCC(Oc2ccc(Cl)cc2Nc2nccc(-c3cc(C#N)c4c(c3)C(C)(C)CN4)n2)C1 (stereo not shown) [Compound 101]	49 nM	447 nM	1350 nM	104 °C
Cc1c(Nc2nccc(-c3cc(C#N)c4c(c3)[C@@](C)(CO)CN4)n2)cccc1C(=O)N1CCN(C2CC2)CC1 [Compound 206]	5.3 nM	71 nM	~7240 nM	238 °C
COc1ccc(Cl)cc1Nc1ncc(F)c(-c2cc(C#N)c3c(c2)C(C)(CO)CN3)n1 (stereo not shown) [Compound 47]	15.1 nM	776 nM	> 10000 nM	> 250 °C
COCCOc1ccc(Cl)cc1Nc1nccc(-c2cc(C#N)c3c(c2)C(C)(CO)CN3)n1 (stereo not shown) [Compound 34]	20.9 nM	316 nM	> 10000 nM	184 °C
Cc1cc(C2CCOCC2)c(C#N)cc1Nc1nccc(-c2cc(C#N)c3c(c2)[C@@](C)(CO)CN3)n1 [Compound 75]	3.6 nM	105 nM	~3310 nM	228 °C
CC(=O)Nc1cc(Cl)cc(Nc2nccc(-c3cc(C#N)c4c(c3)[C@@](C)(CO)CN4)n2)c1C [Compound 63]	1.7 nM	7 nM	~5010 nM	262 °C
COc1ccc(Cl)cc1Nc1nccc(-c2cc(C#N)c3c(c2)C(C)(CO)CN3)n1 (stereo not shown) [Compound 33]	11.2 nM	85 nM	> 10000 nM	239 °C
COc1ccc(Cl)cc1Nc1ncc(F)c(-c2cc(C#N)c3c(c2)[C@@](C)(CO)CN3)n1 [Compound 48]	8.9 nM	447 nM	> 10000 nM	> 250 °C
CC1(CO)CNc2c(C#N)cc(-c3ccnc(Nc4cc(Cl)ccc4OC4CCN(C5CC5)CC4)n3)cc21 (stereo not shown) [Compound 35]	37.2 nM	129 nM	7080 nM	192 °C
CC1(CO)CNc2c(C#N)cc(-c3ccnc(Nc4cc(Cl)ccc4Cl)n3)cc21 (stereo not shown) [Compound 29]	17.4 nM	166 nM	> 10000 nM	210 °C

The remaining molecules from weak to strong by IC50 [1], led by results:

IC50 [1]	IC50 [2]	IC50 [3]	melting point	Compound
3550 nM	3470 nM	> 10000 nM	219 °C	CC1(C)CNc2c(C#N)cc(-c3ccnc(Nc4ccccc4C(=O)N4CCC(O)C4)n3)cc21 (stereo not shown) [Compound 111]
219 nM	380 nM	8320 nM	120 °C	CC1(C)CNc2c(C#N)cc(-c3ccnc(Nc4cc(Cl)ccc4OC4CCN(C5CC5)CC4)n3)cc21 [Compound 99]
105 nM	3720 nM	> 10000 nM	126 °C	CC1(C)CNc2c(C#N)cc(-c3ccnc(Nc4cc(Cl)ccc4OC4CCOCC4)n3)cc21 [Compound 103]
75.9 nM	51 nM	6460 nM	263 °C	CC1(CO)CNc2c(C#N)cc(-c3ccnc(Nc4ccc(C5CCOCC5)c(C(F)(F)F)c4)n3)cc21 (stereo not shown) [Compound 36]
41.7 nM	1020 nM	> 10000 nM	176 °C	CC1(C)CNc2c(C#N)cc(-c3ccnc(Nc4cc(Cl)ccc4OCCO)n3)cc21 [Compound 107]
37.2 nM	17 nM	4170 nM	221 °C	CC1(CO)CNc2c(C#N)cc(-c3ccnc(Nc4ccc(OC5CCOCC5)c(C(F)(F)F)c4)n3)cc21 (stereo not shown) [Compound 37]
8.5 nM	12 nM	120 nM	193 °C	COc1cc(C(=O)N2CCNC(C#N)C2)c(Cl)cc1Nc1nccc(-c2cc(C#N)c3c(c2)C(C)(C)CN3)n1 (stereo not shown) [Compound 121]
4.3 nM	20 nM	> 10000 nM	> 260 °C	COc1cc(C(=O)NCC(C)O)c(Cl)cc1Nc1nccc(-c2cc(C#N)c3c(c2)C(C)(C)CN3)n1 (stereo not shown) [Compound 112]
3.9 nM	2190 nM	> 10000 nM	237 °C	C[C@]1(CO)CNc2c(C#N)cc(-c3ccnc(Nc4cc(C#N)ccc4C(F)(F)F)n3)cc21 [Compound 70]
2.6 nM	28 nM	~407 nM	178 °C	COc1cc(C(=O)N2CC3(CCCNC3)C2)c(Cl)cc1Nc1nccc(-c2cc(C#N)c3c(c2)C(C)(C)CN3)n1 [Compound 113]
2.6 nM	85 nM	6760 nM	183 °C	Cc1c(Nc2nccc(-c3cc(C#N)c4c(c3)C(C)(CO)CN4)n2)cc(Cl)cc1C(=O)N1CCN(C)CC1 (stereo not shown) [Compound 58]
2.5 nM	9 nM	251 nM	237 °C	CN1CCC(Oc2ccc(Nc3nccc(-c4cc(C#N)c5c(c4)C(C)(CO)CN5)n3)cc2C(F)(F)F)CC1 (stereo not shown) [Compound 43]
2.2 nM	19 nM	490 nM	206 °C	COc1cc(C(=O)N2CC3(CCNCC3)C2)c(Cl)cc1Nc1nccc(-c2cc(C#N)c3c(c2)C(C)(C)CN3)n1 [Compound 114]
